Results from patent publication US11957759B1, “Rapidly accelerated fibrosarcoma (RAF) degrading compounds and associated methods of use” (Arvinas Operations, Inc., priority 2022, dated 2024).

Experiments:
B-RAF V600E = target: T1, B-RAF V600E (Homo sapiens, UniProt P15056, V600E); experiment: Target protein degradation, assay C: T-Rex 293 cells, HA-BRAF_V600E, 384 well format; format: cell-based; details: T-Rex 293 HA-BRAF_V600E cells, 24 hours, Examples 83-269; for DC50: Assay C; for Dmax: T-REx-293, Assay C
T1 construct: expressed in transfected cells; host or cells: T-Rex 293 cells (Invitrogen #R71007)
Procedure, shortened: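 After 24 h exposure to an 11-point 1:3 series (300 nM–5 pM, 0.5% DMSO), fixed T-Rex 293 cells carrying HA-BRAF V600E (induced with 1 ng/mL doxycycline) were stained anti-HA and imaged. DC50 and Dmax were derived from BRAF intensity relative to control, and cytotoxicity from nuclear counts.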

B-RAF G466V = target: T2, B-RAF G466V (Homo sapiens, UniProt P15056, G466V); experiment: Target protein degradation, assay D: T-Rex 293 cells, HA-BRAF_G466V, 384 well format; format: cell-based; details: T-Rex 293 HA-BRAF_G466V cells, 24 hours, Examples 83-269; for DC50: Assay D; for Dmax: T-REx-293, Assay D
T2 construct: expressed in transfected cells; host or cells: T-Rex 293 cells (Invitrogen #R71007)
Procedure, shortened: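 Degradation measured by high-content imaging of anti-HA immunofluorescence in fixed T-Rex 293 cells carrying inducible HA-BRAF G466V (1 ng/mL doxycycline), after 24 h PROTAC exposure at 37 °C over 300 nM–5 pM (1:3, 11 points, 0.5% DMSO). Outputs DC50 and Dmax as % of control; nuclei counts against DMSO wells gauge toxicity.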

T1 sequence (P15056 whole entry V600E): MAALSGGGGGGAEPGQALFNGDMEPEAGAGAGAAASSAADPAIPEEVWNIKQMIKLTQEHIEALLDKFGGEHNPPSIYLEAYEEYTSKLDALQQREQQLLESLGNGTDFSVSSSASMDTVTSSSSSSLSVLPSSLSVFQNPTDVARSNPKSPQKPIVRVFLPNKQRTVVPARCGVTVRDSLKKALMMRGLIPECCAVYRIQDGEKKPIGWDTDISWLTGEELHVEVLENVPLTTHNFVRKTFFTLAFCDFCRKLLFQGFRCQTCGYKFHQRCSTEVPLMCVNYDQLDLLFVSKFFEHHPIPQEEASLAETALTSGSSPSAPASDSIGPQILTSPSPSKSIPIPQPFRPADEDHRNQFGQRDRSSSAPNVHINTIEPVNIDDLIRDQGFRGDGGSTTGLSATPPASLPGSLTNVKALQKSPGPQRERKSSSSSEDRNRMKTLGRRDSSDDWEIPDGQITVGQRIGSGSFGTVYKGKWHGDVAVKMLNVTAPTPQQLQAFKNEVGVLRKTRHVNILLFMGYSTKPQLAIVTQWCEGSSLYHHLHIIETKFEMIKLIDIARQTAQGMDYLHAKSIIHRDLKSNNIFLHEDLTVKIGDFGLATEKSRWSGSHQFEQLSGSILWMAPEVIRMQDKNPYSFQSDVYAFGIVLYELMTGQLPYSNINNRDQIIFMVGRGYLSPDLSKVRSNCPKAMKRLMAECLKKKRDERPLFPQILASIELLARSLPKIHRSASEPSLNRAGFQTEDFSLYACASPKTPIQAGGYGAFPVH
T2 sequence (P15056 whole entry G466V): as the sequence (P15056 whole entry V600E) above, with G466V, E600V counted along it

| SMILES | DC50 (B-RAF V600E) | Dmax (B-RAF V600E) | DC50 (B-RAF G466V) | Dmax (B-RAF G466V) |
| --- | --- | --- | --- | --- |
| N#Cc1c(NS(=O)(=O)N2CC[C@@H](F)C2)ccc(F)c1Oc1ccc2ncn(-c3ccc(N4CCC(CN5CC(c6ccc([C@@H]7CCC(=O)NC7=O)cc6F)C5)CC4)cc3)c(=O)c2c1 [Example 184, (3R)-N-(2-cyano-3-{[3-(4-{4-[(3-{4-[(3S)-2,6-dioxopiperidin-3-yl]-2-fluorophenyl}azetidin-1-yl)methyl]piperidin-1-yl}phenyl)-4-oxo-3,4-dihydroquinazolin-6-yl]oxy}-4-fluorophenyl)-3-fluoropyrrolidine-1-sulfonamide] | 50 to 500 nM | ≤ 35% | > 30 nM | – |
| N#Cc1c(NS(=O)(=O)N2CC[C@@H](F)C2)ccc(F)c1Oc1ccc2ncn(-c3ccc(N4CCC(CN5CCN(CC6CCN(c7ccc8c(c7)CN([C@H]7CCC(=O)NC7=O)C8=O)CC6)CC5)CC4)cc3)c(=O)c2c1 [Example 185, (3R)-N-{2-cyano-3-[(3-{4-[4-({4-[(1-{2-[(3S)-2,6-dioxopiperidin-3-yl]-1-oxo-2,3-dihydro-1H-isoindol-5-yl}piperidin-4-yl)methyl]piperazin-1-yl}methyl)piperidin-1-yl]phenyl}-4-oxo-3,4-dihydroquinazolin-6-yl)oxy]-4-fluorophenyl}-3-fluoropyrrolidine-1-sulfonamide] | 50 to 500 nM | 35 to 70% | 10 to 30 nM | ≤ 35% |
| N#Cc1c(NS(=O)(=O)N2CC[C@@H](F)C2)ccc(F)c1Oc1ccc2ncn(-c3ccc(N4CCC(CN5CCN(CC6CCN(c7ccc8c(c7)CN([C@@H]7CCC(=O)NC7=O)C8=O)CC6)CC5)CC4)cc3)c(=O)c2c1 [Example 186, (3R)-N-{2-cyano-3-[(3-{4-[4-({4-[(1-{2-[(3R)-2,6-dioxopiperidin-3-yl]-1-oxo-2,3-dihydro-1H-isoindol-5-yl}piperidin-4-yl)methyl]piperazin-1-yl}methyl)piperidin-1-yl]phenyl}-4-oxo-3,4-dihydroquinazolin-6-yl)oxy]-4-fluorophenyl}-3-fluoropyrrolidine-1-sulfonamide] | 50 to 500 nM | 35 to 70% | 10 to 30 nM | ≤ 35% |
| N#Cc1c(NS(=O)(=O)N2CC[C@@H](F)C2)ccc(F)c1Oc1ccc2ncn(-c3ccc(N4CCC(CN5CCC(c6ccc([C@H]7CCC(=O)NC7=O)cc6F)CC5)CC4)cc3)c(=O)c2c1 [Example 187, (3R)-N-(2-cyano-3-{[3-(4-{4-[(4-{4-[(3R)-2,6-dioxopiperidin-3-yl]-2-fluorophenyl}piperidin-1-yl)methyl]piperidin-1-yl}phenyl)-4-oxo-3,4-dihydroquinazolin-6-yl]oxy}-4-fluorophenyl)-3-fluoropyrrolidine-1-sulfonamide] | 50 to 500 nM | ≥ 70% | 1 to 10 nM | ≤ 35% |
| N#Cc1c(NS(=O)(=O)N2CC[C@@H](F)C2)ccc(F)c1Oc1ccc2ncn(-c3ccc(N4CCC(CN5CCC(c6ccc([C@@H]7CCC(=O)NC7=O)cc6F)CC5)CC4)cc3)c(=O)c2c1 [Example 188, (3R)-N-(2-cyano-3-{[3-(4-{4-[(4-{4-[(3S)-2,6-dioxopiperidin-3-yl]-2-fluorophenyl}piperidin-1-yl)methyl]piperidin-1-yl}phenyl)-4-oxo-3,4-dihydroquinazolin-6-yl]oxy}-4-fluorophenyl)-3-fluoropyrrolidine-1-sulfonamide] | 50 to 500 nM | 35 to 70% | 1 to 10 nM | 35 to 70% |
| N#Cc1c(NS(=O)(=O)N2CC[C@@H](F)C2)ccc(F)c1Oc1ccc2ncn(-c3ccc(N4CC(CN5CCC(c6ccc7c(c6)CN([C@H]6CCC(=O)NC6=O)C7=O)CC5)C4)cc3)c(=O)c2c1 [Example 189, (3R)-N-(2-cyano-3-{[3-(4-{3-[(4-{2-[(3S)-2,6-dioxopiperidin-3-yl]-1-oxo-2,3-dihydro-1H-isoindol-5-yl}piperidin-1-yl)methyl]azetidin-1-yl}phenyl)-4-oxo-3,4-dihydroquinazolin-6-yl]oxy}-4-fluorophenyl)-3-fluoropyrrolidine-1-sulfonamide] | 50 to 500 nM | 35 to 70% | 1 to 10 nM | 35 to 70% |
